Reference: patent US20150343007A1, “EDIBLE COMPOSITION COMPRISING AN EXTRACT OF INULA RACEMOSA AND NARINGIN” (CONOPCO, INC. D/B/A UNILEVER, priority 2012, published 2015)

These molecules were tested against T1, human recombinant Dipeptidyl peptidase-IV (DPP-IV) enzyme (Homo sapiens, UniProt P27487) (assay: Invitro DPP-4 Enzyme Assay (Gly-Pro p-NA substrate, absorbance at 405 nm)). Conditions: 4 ng DPP-IV per well, 200 μl/well TRIS-HCl pH 8, 37° C., 1 hr; sample amounts (μg/well) per Table 1; Control 3 = 100% activity.
T1 construct: purchased PROSPEC ISRAEL ENZ 375
T1 sequence (P27487 whole entry): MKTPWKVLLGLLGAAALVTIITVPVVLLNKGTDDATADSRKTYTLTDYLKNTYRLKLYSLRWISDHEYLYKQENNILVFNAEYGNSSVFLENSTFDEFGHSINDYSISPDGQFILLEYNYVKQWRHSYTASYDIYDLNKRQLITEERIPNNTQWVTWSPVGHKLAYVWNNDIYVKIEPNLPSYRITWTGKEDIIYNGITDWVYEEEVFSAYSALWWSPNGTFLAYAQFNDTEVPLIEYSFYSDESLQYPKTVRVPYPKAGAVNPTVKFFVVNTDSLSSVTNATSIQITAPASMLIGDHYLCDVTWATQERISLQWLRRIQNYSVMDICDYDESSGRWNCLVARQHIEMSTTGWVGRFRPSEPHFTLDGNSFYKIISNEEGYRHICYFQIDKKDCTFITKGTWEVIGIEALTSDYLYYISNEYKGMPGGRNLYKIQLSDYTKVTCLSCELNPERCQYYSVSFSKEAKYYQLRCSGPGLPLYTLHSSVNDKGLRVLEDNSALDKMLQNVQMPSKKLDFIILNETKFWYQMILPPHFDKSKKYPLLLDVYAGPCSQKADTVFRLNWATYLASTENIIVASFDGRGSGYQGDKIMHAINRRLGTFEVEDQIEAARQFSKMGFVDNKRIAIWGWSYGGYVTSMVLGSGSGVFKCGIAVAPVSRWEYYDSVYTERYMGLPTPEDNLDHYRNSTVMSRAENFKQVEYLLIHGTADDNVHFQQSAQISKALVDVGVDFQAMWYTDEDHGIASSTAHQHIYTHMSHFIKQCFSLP
Format: biochemical
Procedure: A 96 well plate (NEST Biotechnology Co. Ltd, Cat No 701001) was taken. In each well of 96 well plate extract of Inula racemosa (as prepared above), Naringin (SIGMA, Cat. No: N1376) and the combination of extract of Inula racemosa and naringin were put in varied concentration as per Table 1. In each well, 4 ng of human recombinant Dipeptidyl peptidase-IV (DPP-IV) enzyme (PROSPEC ISRAEL, Cat. No. ENZ 375) was also added. After that, the final volume was made up to 200 μl/well using TRIS-HCl buffer of pH-8. The TRIS-HCl buffer was prepared by adding 2.42 g of TRIS (Tris hydroxyl methyl amino methane; Supplier: Sisco Research Laboratory ltd, Cat No 2044122) base, 0.372 g of EDTA (SIGMA, Cat No E6758) and 5.644 g of NaCl in 900 mL of autoclaved milli-Q water (Millipore® India) and stirred it till it get dissolved (˜30 minutes). After that the pH of the solution was adjusted to 8.0 using HCl acid and then the volume of the solution was made up to 1000 mL with autoclaved milli-Q water.
The enzyme and combinations of extract of Inula racemosa and naringin were mixed for 1 min using microplate reader (BIO-RAD LAB INDIA, Model No. 680) and incubated in an incubator (Thermo Scientific, Model 3111; conditions: at 37° C.) for 10 minutes. After that the enzymatic reaction was initiated by adding 10 μL/well of the 19 mM of substrate Glycine-Proline para nitroanilide (Gly-Pro p-NA) (this is equivalent to GLP-1). Gly-Pro-p NA is a universally accepted and commercially available substrate for the enzyme DPP-4, due to the lack of availability of commercially available chromogenic GLP-1. We have used Gly-Pro-p NA in the assay which is equivalent to GLP-1. […]
All the above reaction mixture was again incubated for 1 hr in the same incubator under the same condition. […] After this the absorbance was measured at a wavelength of 405 nm using microplate reader (BIO-RAD LAB INDIA, Model No. 680). […]
The % activities of the DPP-4 for the other samples were calculated using the following formula:
The % inhibitions by the samples were then calculated by subtracting the activity from 100.
With `C[C@@H]1O[C@@H](O[C@H]2[C@H](Oc3cc(O)c4c(c3)O[C@H](c3ccc(O)cc3)CC4=O)O[C@H](CO)[C@@H](O)[C@@H]2O)[C@H](O)[C@H](O)[C@H]1O` [B, 4,5,7-Trihydroxyflavanone 7-rhamnoglucoside] the “% Inhibition” value was 18.54%. With `C[C@@H]1O[C@@H](O[C@H]2[C@H](Oc3cc(O)c4c(c3)O[C@H](c3ccc(O)cc3)CC4=O)O[C@H](CO)[C@@H](O)[C@@H]2O)[C@H](O)[C@H](O)[C@H]1O` [C, 4,5,7-Trihydroxyflavanone 7-rhamnoglucoside] the “% Inhibition” value was 18.43%. In the case of `C[C@@H]1OC(OC2C(O)[C@H](O)C(CO)O[C@H]2Oc2cc(O)c3c(c2)O[C@H](c2ccc(O)cc2)CC3=O)[C@H](O)C(O)C1O` (single isomer, unassigned) [D, 4,5,7-Trihydroxyflavanone 7-rhamnoglucoside], the “% Inhibition” value is reported as 18.11%.
